The test system of series [1] is IL-6. Description: Inhibition of R848-induced IL-6 release in human PBMCs, IL-6 ELISA. It is filed as cell-based. The note with it: PBMC, compound 24 hours, then R848 10 µg/mL 5 hours. As to the method: Example 3: Detection of inhibition of R848-induced IL-6 release
Cryopreserved human PBMCs (Milestone® Biotechnologies, PB010C-W) were thawed and resuspended in RPMI-1640 medium (Gibco, 22400-105) supplemented with 10% fetal bovine serum (Gibco, 10099-141), 100 U/mL penicillin, and 100 µg/mL streptomycin (Gibco, 15140122). Subsequently, 190 µL of the PBMC suspension was added to each well of 96-well clear cell culture plates (Corning, 3599) to achieve a density of 1×10^5 cells/well. The cell plates were incubated at 37°C in a 5% CO2 incubator for 30 minutes. Then, 5 µL of diluted compound solution was added to the corresponding cell-seeded wells to achieve final concentrations ranging from 0.046 to 3,000 nM. The final concentration of DMSO was 0.1%. After the compound-treated cell plate was incubated at 37°C in a 5% CO2 incubator for 24 hours, 5 µL of R848 (MCE, HY-13740) was added to achieve a final concentration of 10 µg/mL. The cell plates were incubated again at 37°C in a 5% CO2 incubator for 5 hours, then centrifuged at 1,000 rpm for 1 minute. 100 µL of the cell supernatant from each well was transferred to a new 96-well clear cell culture plate for IL-6 concentration testing.
Interleukin-6 (IL-6) ELISA assay
The IL-6 concentration in the supernatant of R848-induced human PBMCs was determined using a Human IL-6 (interleukin-6) ELISA KIT (4Bio, CHE0009-048). IL-6 standard solutions at different concentrations, ranging from 3.9 to 250 pg/mL, were prepared according to the manufacturer's instructions. 100 µL of each concentration of the IL-6 standard solution and the pre-diluted test cell supernatant samples were added separately to anti-IL-6 antibody-coated and blocked clear 96-well plates, followed by incubation at 37°C for 1.5 hours. According to the product instructions, the plates were washed, 100 µL of biotinylated antibody was added, and the plates were incubated at 37°C for 1 hour. The plates were washed, 100 µL of enzyme conjugate working solution was added. The plates were incubated at 37°C for 30 minutes, and then washed. 100 µL of chromogenic substrate was added, and the plates were incubated at 37°C for 10-20 minutes. The reaction was terminated by adding 100 µL of stop solution. After the reaction, the OD value at 450 nm was measured in absorbance mode using an Envision microplate reader (PerkinElmer). A standard curve was plotted using the corrected OD values of the various concentrations of IL-6 standard solutions. The IL-6 concentration in each cell supernatant was then determined on the basis of the corresponding concentration for the corrected OD value of the test sample on the standard curve. […] Subsequently, the IC50 value of the compound was calculated by performing non-linear curve fitting of concentration versus inhibition rate using GraphPad Prism 9.

Series [2] concerns the target T1, IRAK4 (Homo sapiens, UniProt Q9NWZ3).
T1 sequence (Q9NWZ3 1-460): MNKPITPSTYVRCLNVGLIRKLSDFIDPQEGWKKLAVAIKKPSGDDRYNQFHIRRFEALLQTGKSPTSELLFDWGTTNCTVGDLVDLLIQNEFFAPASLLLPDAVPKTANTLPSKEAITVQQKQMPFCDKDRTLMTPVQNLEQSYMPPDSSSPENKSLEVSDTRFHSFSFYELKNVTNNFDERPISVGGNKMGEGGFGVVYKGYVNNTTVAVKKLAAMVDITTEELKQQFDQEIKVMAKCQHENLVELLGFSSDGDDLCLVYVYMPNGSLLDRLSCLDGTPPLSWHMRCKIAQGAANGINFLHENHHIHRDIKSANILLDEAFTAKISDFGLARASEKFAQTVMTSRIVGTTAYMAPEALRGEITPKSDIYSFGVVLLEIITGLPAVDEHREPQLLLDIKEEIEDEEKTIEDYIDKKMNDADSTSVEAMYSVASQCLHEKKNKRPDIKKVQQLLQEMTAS
In words: Degradation of IRAK4 in THP1 cells, Western blot. The format is cell-based. Further details: Degradation of IRAK4 in THP1 by compound; host or cells: THP-1. The note with it: THP-1 cells, 24 hours of incubation; for DC50: IRAK4 protein by Western blot, read-out: DC50; for Dmax: maximum degradation rate, read-out: Dmax. Put shortly:
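THP1 cells treated 24 h, lysed; lysates normalised by BCA, 40 μg protein per lane on 10% SDS-PAGE, anti-IRAK4 Western blot with chemiluminescence detection.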
(Immunoblotting shows a protein as a band on a membrane.)

Series [3] in a line: Pharmacokinetic detection in rats after intravenous injection and oral administration. The format is in vivo, Sprague-Dawley (SD) rats. The following applies: rat. As to the method: Example 4. Pharmacokinetic detection
This study was designed to investigate the pharmacokinetic properties of the compounds in rats following intravenous injection and oral administration.
Experimental protocol: Six healthy male Sprague-Dawley (SD) rats were used for each compound, randomly divided into two groups of three animals each, with body weights ranging from 180-220 g. The rats were fasted overnight (10-14 hours) prior to administration, with free access to water, and food was restored 4 hours after administration. The compounds were formulated in a vehicle consisting of 5% DMSO + 10% solutol + 85% physiological saline (w/v). […] For A170, A177, and A180, the intravenous injection group received a dose of 1 mg/kg with an administration volume of 1 mL/kg, and the oral administration group received a dose of 5 mg/kg with an administration volume of 5 mL/kg. Blank blood samples were collected prior to administration. After administration, 0.2 mL of blood was collected from the jugular vein or other suitable methods at predetermined time points (0.083 h, 0.25 h, 0.5 h, 1 h, 2 h, 4 h, 8 h, 24 h) into EDTA-K2 anticoagulant tubes, and plasma was separated by centrifugation at 6800 g for 6 minutes. After the experiment, the concentration of the compound in plasma was quantitatively detected using liquid chromatography-tandem mass spectrometry (LCMS/MS). Pharmacokinetic parameters were calculated on the basis of the plasma concentration data at different time points using Phoenix WinNonlin version 8.3.5.

Where [4] appears, read: in vivo, oral administration, 10 mg/kg.

Results on 17 compounds are retold here after patent EP4763839A1 (Pamplona Therapeutics (Shenzhen) Co., Ltd., priority 2023, dated 2025).

Take `NC(=O)c1nn(-c2ccc(N3CCN(CC4CCN(c5cccc(NC6CCC(=O)NC6=O)c5)CC4)CC3)cc2)cc1NC(=O)c1cccc(C(F)(F)F)n1` (stereo not shown) [Compound A197]: the IC50 (usually the point on the concentration scale where inhibition reaches its midpoint) in series [1] lay in the range of 0.01 to 0.03 µM. In series [2], the DC50 – broadly, the concentration giving 50% degradation – is less than 0.1 µM and the Dmax (as a rule, the largest share of the target that was removed) is more than 60%.

In series [1], `NC(=O)c1nn(-c2ccc(N3CCN(CCC4CCN(c5cccc(NC6CCC(=O)NC6=O)c5)CC4)CC3)cc2)cc1NC(=O)c1cccc(C(F)(F)F)n1` (stereo not shown) [Compound A196] showed an IC50 of less than 0.01 µM. Also, in series [2], the DC50 is less than 0.1 µM and the Dmax is more than 60%.

Compound `Cn1c(=O)n(C2CCC(=O)NC2=O)c2cccc(N3CCC(CCN4CCN(c5ccc(-n6cc(NC(=O)c7cccc(C(F)(F)F)n7)c(C(N)=O)n6)cc5)CC4)CC3)c21` (stereo not shown) [Compound A182, N-(3-carbamoyl-1-(4-(4-(2-(1-(1-(2,6-dioxopiperidin-3-yl)-3-methyl-2-oxo-2,3-dihydro-1H-benzo[d]imidazol-4-yl)piperidin-4-yl)ethyl)piperazin-1-yl)phenyl)-1H-pyrazol-4-yl)-6-(trifluoromethyl)picolinamide] registered an IC50 in series [1] of less than 0.01 µM. In series [2], the DC50 was less than 0.1 µM and the Dmax is more than 60%.

Compound `Cn1c(=O)n(C2CCC(=O)NC2=O)c2cccc(N3CCC4(CC3)CC(NCc3ccc(-n5cc(NC(=O)c6cccc(C(F)(F)F)n6)c(C(N)=O)n5)cc3)C4)c21` (stereo not shown) [Compound A137] displayed an IC50 in series [1] of less than 0.01 µM. In series [2], the DC50 is less than 0.1 µM and the maximal degradation (Dmax) is more than 60%.

In series [1], `NC(=O)c1nn(-c2ccc(N3CCN(CC4CCN(c5ccc6c(c5)C(=O)N(C5CCC(=O)NC5=O)C6=O)CC4)CC3)cc2)cc1NC(=O)c1cccc(C(F)(F)F)n1` (stereo not shown) [Compound A122] showed an IC50 of less than 0.01 µM. In series [2], the DC50 is less than 0.1 µM and the Dmax is more than 60%.

As for `Cn1c(=O)n(C2CCC(=O)NC2=O)c2cccc(N3CCC4(CCN(Cc5ccc(-n6cc(NC(=O)c7cccc(C(F)(F)F)n7)c(C(N)=O)n6)cc5)C4)CC3)c21` (stereo not shown) [Compound A140], in series [1], the IC50 is less than 0.01 µM. Moreover, in series [2], the DC50 was less than 0.1 µM and the Dmax was more than 60%.

In turn, `Cn1c(-c2ccc(N3CCC(CN4CCN(c5ccc(-n6cc(NC(=O)c7cccc(C(F)(F)F)n7)c(C(N)=O)n6)cc5)CC4)C3)cc2)nn(C2CCC(=O)NC2=O)c1=O` (stereo not shown) [Compound A187] came in with an IC50 in series [1] of less than 0.01 µM. In addition, in series [2], the DC50 is less than 0.1 µM and the Dmax is more than 60%.

The compound `Cn1c(=O)n(C2CCC(=O)NC2=O)c2cccc(N3CCN(CCN4CCN(c5ccc(N6C=C(NC(=O)c7cccc(C(F)(F)F)n7)C(=C=O)N6)cc5)CC4)CC3)c21` (stereo not shown) [Compound A180, N-(3-carbonyl-1-(4-(4-(2-(4-(1-(2,6-dioxopiperidin-3-yl)-3-methyl-2-oxo-2,3-dihydro-1H-benzo[d]imidazol-4-yl)piperazin-1-yl)ethyl)piperazin-1-yl)phenyl)-1H-pyrazol-4-yl)-6-(trifluoromethyl)picolinamide] displayed a 50% inhibitory concentration (IC50) in series [1] of less than 0.01 µM. For the same compound, in series [2], the DC50 is less than 0.1 µM and the Dmax was more than 60%.

`Cn1c(=O)n(C2CCC(=O)NC2=O)c2cccc(N3CCC4(CCN(C(=O)c5ccc(-n6cc(NC(=O)c7cccc(C(F)(F)F)n7)c(C(N)=O)n6)cc5)C4)CC3)c21` (stereo not shown) [Compound A135] came in with an IC50 in series [1] of less than 0.01 µM. Also, in series [2], the DC50 is less than 0.1 µM and the Dmax is more than 60%.

On to `NC(=O)c1nn(-c2ccc(N3CCN(CC4CCN(c5ccc6c(c5)C(=O)N(C5CCC(=O)NC5=O)C6=O)C4)CC3)cc2)cc1NC(=O)c1cccc(C(F)(F)F)n1` (stereo not shown) [Compound A227], for which the IC50 in series [1] was less than 0.01 µM. For the same compound, in series [2], the DC50 was less than 0.1 µM and the Dmax was more than 60%.

Turning to `NC(=O)c1nn(-c2ccc(N3CCC(NCC4CCN(c5ccc6c(c5)C(=O)N(C5CCC(=O)NC5=O)C6=O)C4)CC3)cc2)cc1NC(=O)c1cccc(C(F)(F)F)n1` (stereo not shown) [Compound A228], in series [1], the IC50 is less than 0.01 µM. Further, in series [2], the DC50 was less than 0.1 µM and the Dmax is more than 60%.

`COc1ccc(C(=O)N2CCC(CCN3CCN(c4ccc(-n5cc(NC(=O)c6cccc(C(F)(F)F)n6)c(C(N)=O)n5)cc4)CC3)CC2)cc1N1CCC(=O)NC1=O` [Compound A144] came in with an IC50 in series [1] of less than 0.01 µM. In series [2], the DC50 was less than 0.1 µM and the Dmax was more than 60%.

As for `Cn1c(=O)n(C2CCC(=O)NC2=O)c2cccc(C#CCOC3CCN(CC4CCC(n5cc(NC(=O)c6cnn7ccc(N8CC9CC8CO9)nc67)c(C(F)F)n5)CC4)CC3)c21` (stereo not shown) [Control compound 1, reference compound], in series [3] (setting [4]), the AUC (as a rule, concentration integrated over time) turned out to be 428 ng·h/mL; the Cmax – broadly, the maximum level reached in the sampled fluid or tissue – is 98 ng/mL; the half-life (usually the time needed for the level to fall by half in the phase considered) was 4 h. For the same compound, the F in series [3] (oral 10 mg/kg, intravenous 2 mg/kg) turned out to be 8%.

For `Cn1c(-c2ccc(N3CCC(CN4CCN(c5ccc(-n6cc(NC(=O)c7cccc(C(F)(F)F)n7)c(C(N)=O)n6)cc5)CC4)CC3)cc2)nn(C2CCC(=O)NC2=O)c1=O` (stereo not shown) [Compound A189], the IC50 in series [1] was 0.01 to 0.03 µM. Further, in series [2], the DC50 was 0.1 to 1 µM and the Dmax was more than 60%.

In series [1], `COc1ccc(C(=O)N2CCN(CCN3CCN(c4ccc(-n5cc(NC(=O)c6cccc(C(F)(F)F)n6)c(C(N)=O)n5)cc4)CC3)CC2)cc1N1CCC(=O)NC1=O` [Compound A143] had an IC50 of less than 0.01 µM. In addition, in series [2], the DC50 is less than 0.1 µM and the Dmax was more than 60%.

For the compound `COc1ccc(C(=O)N2CCC(CCN3CCN(c4ccc(N5C=C(NC(=O)c6cccc(C(F)(F)F)n6)C(=C=O)N5)cc4)CC3)C2)cc1N1CCC(=O)NC1=O` (stereo not shown) [Compound A183, N-(3-carbonyl-1-(4-(4-(2-(1-(3-(2,4-dioxotetrahydropyrimidin-1(2H)-yl)-4-methoxybenzoyl)pyrrolidin-3-yl)ethyl)piperazin-1-yl)phenyl)-1H-pyrazol-4-yl)-6-(trifluoromethyl)picolinamide], the IC50 in series [1] was less than 0.01 µM. In series [2], the DC50 is less than 0.1 µM and the Dmax is more than 60%.

Consider `COc1ccc(C(=O)N2CCC(CCN3CCN(c4ccc(-n5cc(NC(=O)c6cccc(C(F)(F)F)n6)c(C(F)F)n5)cc4)CC3)CC2)cc1N1CCC(=O)NC1=O` [Compound A148], for which the IC50 in series [1] fell in the range of 0.01 to 0.03 µM. Moreover, in series [2], the DC50 lay in the range of 0.1 to 1 µM and the Dmax was more than 60%.
